We go through 22 compounds from PubChem BioAssay AID2031 (NMMLSC, 2009).

The target in the experiment is Rab7 GTPase wild-type (dog), GST fusion. Kind of experiment: Rab7 GTP binding inhibitors, analog potency, SAR follow-up, biochemical, oxadiazole analogs, multiplex bead flow cytometry (AID 2031). Particulars: bead-based flow cytometry, Bodipy-FL-GTP binding; Ki calculated from EC50.
`COc1ccc(-c2noc(CCC(=O)N3CCN(c4cccc(Cl)c4)CC3)n2)cc1`: the inhibition constant (Ki) was 2030 nM.

Turning to `Cc1ccc(-c2noc(CCC(=O)N3CCN(c4cc(C)ccc4C)CC3)n2)cc1`, the Ki is 290 nM. The same measure for `COc1cccc(-c2noc(CCC(=O)N3CCN(c4cc(C)ccc4C)CC3)n2)c1`: 220 nM; for `Cc1ccc(C)c(N2CCN(C(=O)CCc3nc(-c4cccc(Br)c4)no3)CC2)c1`: 230 nM. The figure for `Cc1cccc(-c2noc(CCC(=O)N3CCN(c4cc(C)ccc4C)CC3)n2)c1` is 70 nM. The same measure for `COc1ccc(-c2cc(CCC(=O)N3CCN(c4cc(C)ccc4C)CC3)on2)cc1`: 20 nM; for `Cc1ccc(C)c(N2CCN(C(=O)CCc3nc(-c4ccc(Cl)cc4)no3)CC2)c1`: 190 nM. As to `COc1ccc(-c2noc(CCC(=O)N3CCN(c4cccc(C)c4C)CC3)n2)cc1`, the Ki is 100 nM. The figure for `COc1ccc(-c2noc(CCCC(=O)N3CCN(c4cc(C)ccc4C)CC3)n2)cc1` is 940 nM.

In the case of `COc1ccc(-c2noc(CCC(=O)N3CCN(c4ccccc4Br)CC3)n2)cc1`, the Ki was 150 nM.

In the case of `Cc1ccc(C)c(N2CCN(C(=O)CCc3nc(-c4ccc(Br)cc4)no3)CC2)c1`, the Ki is 100 nM.

Turning to `COc1ccc(-c2noc(CCC(=O)N3CCN(c4ccccc4F)CC3)n2)cc1`, the Ki is 40 nM. The same measure for `COc1ccc(-c2noc(CCC(=O)N3CCN(c4ccccc4Cl)CC3)n2)cc1`: 150 nM. Take `COc1ccc(-c2noc(CCC(=O)N3CCN(c4cc(C)ccc4C)CC3)n2)cc1`: the Ki is 160 nM. `Cc1ccc(C)c(N2CCN(C(=O)CCc3nc(-c4ccc(F)cc4)no3)CC2)c1`: the Ki is 40 nM. The figure for `Cc1ccc(C)c(N2CCN(C(=O)CCc3nc(-c4ccccc4Br)no3)CC2)c1` is 270 nM; for `Cc1ccc(C)c(N2CCN(C(=O)CCc3nc(-c4cccc(F)c4)no3)CC2)c1` it is 510 nM. With `Cc1ccc(C)c(N2CCN(C(=O)CCc3nc(-c4ccccc4C)no3)CC2)c1`, the Ki is 360 nM. Regarding `Cc1ccc(C)c(N2CCN(C(=O)CCc3nc(-c4ccccc4)no3)CC2)c1`, the Ki is 80 nM.

`COc1ccc(-c2noc(CCC(=O)N3CCN(c4ccccc4C(F)(F)F)CC3)n2)cc1`: the Ki was 130 nM.

For `Cc1ccc(C)c(N2CCN(C(=O)CCc3nc(-c4cccc(C(F)(F)F)c4)no3)CC2)c1`, the inhibitory constant (Ki) is 50 nM. The same measure for `COc1ccc(-c2noc(CCC(=O)N3CCC(c4cc(C)ccc4C)CC3)n2)cc1`: 90 nM.

The term Ki denotes the dissociation constant of the complex between target and ligand, obtained from inhibition or displacement.
